From US20040115614A1, “Electrophysiology assay methods” (priority 2002, published 2004)
Where “and” joins values, the source holds several entries; their conditions need not be identical. Equal entries are not always repeated. Where two headings read alike, the source gives them in different places.

Legend:
[1] = test system: voltage-gated sodium channels; assay type: cell-based, human
Na^+ channels = assay type: cell-based, human; details: read-out: Tetrodotoxin IC50
[2] = Protocol: The amplitude and rate of the observed depolarization was reduced by the removal of extracellular Na^+ concentration. […] This reduction effect was more pronounced in the absence of extracellular Na^+ and in cells that were not pre-incubated with the compound.

Clc1ccccc1C(c1ccccc1)(c1ccccc1)n1ccnc1 [Clotrimazole]
Rate (% change/ s) ([1]; 1 μM, 30 min pre-incubation, 8 V train of 750 μs pulses, 8 pulses per s for 3 s): 0.124 ± 0.024 % change/ s | Amplitude (% max) ([1]; 1 μM, 30 min pre-incubation, 8 V train, % of maximal depolarization with 50 mM KCl): 33.92 ± 0.320 % max

NC1=N[C@H](O)[C@H]2[C@H]3O[C@]4(O)O[C@@H]([C@@H](O)[C@@]2(N1)[C@@H]4O)[C@]3(O)CO [TTX, tetrodotoxin]
IC50 (Na^+ channels): 9.5 nM and 6.69 nM | Amplitude (% max) [1]: 24.260 ± 0.290 % max | Rate (% change/ s) [1]: 0.001 ± 0.001 % change/ s | effect on voltage-induced depolarizations [1]: blocked the depolarizations in a dose-dependent manner | voltage-induced changes in plasma membrane potential [1]: completely abolished | IC50 ([1]; read-out: IC50 for block of voltage-induced depolarizations): ~9 nM

COc1ccc(CCN(C)CCCC(C#N)(c2ccc(OC)c(OC)c2)C(C)C)cc1OC (stereo not shown) [Verapamil]
Amplitude (% max) [1]: 32.84 ± 0.330 % max | Rate (% change/ s) [1]: 0.141 ± 0.014 % change/ s

COc1cc(N)c(Cl)cc1C(=O)NC1CCN(CCCOc2ccc(F)cc2)CC1OC (stereo not shown) [cisapride]
KCl-induced plasma membrane depolarization [2]: reduced

Charybdotoxin
Rate (% change/ s) ([1]; 100 nM, 30 min pre-incubation, 8 V train of 750 μs pulses, 8 pulses per s for 3 s): 0.115 ± 0.013 % change/ s | Amplitude (% max) ([1]; 100 nM, 30 min pre-incubation, 8 V train, % of maximal depolarization with 50 mM KCl): 34.09 ± 0.326 % max
